Results: publication PMC10110569, “Structure and mechanism of the alkane-oxidizing enzyme AlkB” (Nature Communications, 2023)

T1: FtAlkB (Fontimonas thermophila, UniProt A0A1I2KHB9)
T1 construct: gene SAMN04488120_1209; residues 4-399, codon optimized, pRSF vector, E. coli BL21 (DE3), 3C protease digestion (tag cut), DDM-solubilized; 45 kD; cryo-EM with nanobody AP32; lysate assays with AlkG and AlkT as redox partners
T1 sequence (A0A1I2KHB9 4-399): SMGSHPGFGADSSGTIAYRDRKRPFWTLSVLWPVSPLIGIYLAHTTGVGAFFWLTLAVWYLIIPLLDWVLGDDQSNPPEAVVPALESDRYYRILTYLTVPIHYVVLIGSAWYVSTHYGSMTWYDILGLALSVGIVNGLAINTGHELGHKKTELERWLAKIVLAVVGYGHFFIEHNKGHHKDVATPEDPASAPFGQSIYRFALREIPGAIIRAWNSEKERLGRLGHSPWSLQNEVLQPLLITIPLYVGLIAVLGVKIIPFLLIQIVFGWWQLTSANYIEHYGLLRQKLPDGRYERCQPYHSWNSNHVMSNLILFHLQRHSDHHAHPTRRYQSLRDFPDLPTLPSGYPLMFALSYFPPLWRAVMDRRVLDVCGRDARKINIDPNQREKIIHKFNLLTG

T2: Fontimonas thermophila alkane monooxygenase AlkB (FtAlkB), amino acids 4-399 (Fontimonas thermophila)
T2 construct: Alkane monooxygenase AlkB of Fontimonas thermophila, amino acids 4-399, codon optimized, in pRSF vector; Membrane protein kept in DDM (0.02% in SEC buffer); source: E. coli BL21 (DE3), solubilized in 1% DDM, purified (cobalt resin, 3C protease digestion, SEC)
T2 chain: T1 sequence (A0A1I2KHB9 4-399)

B1: Nanobody AP32 (anti-FtAlkB nanobody) (VHH)
VHH: QVQLQESGGGLVQAGGSLRLSCAASGTISRYWTMGWYRQAPGKERELVAGISEGGSTNYADSVKGRFTISRDNAKNTVYLQMNSLKPEDTAVYYCAVTYRGPWFNRDPHYYWGQGTQVTVSS
notes: Synthetic nanobody from a library after three runs of selection; the model was started from the nanobody of PDB 7SL8 with the CDRs rebuilt, so 7SL8 is not this nanobody; also called FtAlkB-specific nanobody; source: E. coli BL21 (DE3), purified

Experiments:
[1] = molecular target: T1, FtAlkB; experiment: GC-MS alkane hydroxylation assay, purified enzyme; format: biochemical; conditions: purified AlkG, maize ferredoxin reductase, NADPH; 37 °C
[2] = molecular target: T2, Fontimonas thermophila alkane …; experiment: cryo-EM structure; FtAlkB-nanobody AP32 complex in 20 mM HEPES pH 7.4, 150 mM NaCl, 0.02% DDM; single-particle cryo-EM, 3.59 Å for FtAlkB-nanobody (3.45 Å with a mask on FtAlkB only); conditions: both partners purified

Molecule	GC-MS alkane hydroxylation assay, purified enzyme [1]	binding result [2]
CCCCCCCC [octane]	FtAlkB displayed robust alkane hydroxylase activities on a model alkane octane	
B1		binds
